{"source": "paper PMC11532403", "about": "(Signal Transduction and Targeted Therapy, 2024)", "key": {"[1]": {"system": "RET-altered / thyroid / lung tumors", "conditions": "cited from earlier work"}, "[2]": {"system": "MET", "parameters": "method as in earlier work", "conditions": "read-out: MET IC50 ± SD; cited from earlier work"}, "[3]": {"system": "VEGFR-2", "parameters": "method as in earlier work", "conditions": "read-out: VEGFR-2 IC50 ± SD; cited from earlier work"}, "[4]": {"system": "patients", "conditions": "cited from earlier work"}, "[5]": {"system": "HEK293T-KIF5B-RET^V804M xenograft", "assay": "Tumor xenograft model", "assay_type": "in vivo, BALB/c nude mice", "conditions": "20 mg/kg twice daily, 14 days", "experimental": "All procedures relating to animal handling, care, and treatment were performed according to the Beijing Laboratory Animal Management Regulations. 6-week-old male BALB/c nude mice were inoculated subcutaneously into the flank with Baf3-CCDC6-RET^WT (5*10^6 cells/ 0.1 mL/ each), Baf3-CCDC6-RET^M918T (5*10^6 cells/0.1 mL/each), Baf3-CCDC6-RET^V804M (5*10^6 cells/ 0.1 mL/ each), or HEK293T-KIF5B-RET^V804M (5*10^6 cells/ 0.1 mL/ each). Mice were randomized by tumor size into groups of 10 to 12 when tumor volume reached approximately 100-150 mm^3. […] Tumor size and body weight were measured two times each week, and tumor volume was calculated with the following formula: [length × (width)^2]/ 2. Statistical significance was calculated by using two-way ANOVA test to assess the difference in tumor volumes between the control (vehicle-treated) and treatment groups."}, "[6]": {"molecular_target": "hERG potassium channel (Homo sapiens, UniProt Q12809)", "sequence (Q12809 whole entry)": "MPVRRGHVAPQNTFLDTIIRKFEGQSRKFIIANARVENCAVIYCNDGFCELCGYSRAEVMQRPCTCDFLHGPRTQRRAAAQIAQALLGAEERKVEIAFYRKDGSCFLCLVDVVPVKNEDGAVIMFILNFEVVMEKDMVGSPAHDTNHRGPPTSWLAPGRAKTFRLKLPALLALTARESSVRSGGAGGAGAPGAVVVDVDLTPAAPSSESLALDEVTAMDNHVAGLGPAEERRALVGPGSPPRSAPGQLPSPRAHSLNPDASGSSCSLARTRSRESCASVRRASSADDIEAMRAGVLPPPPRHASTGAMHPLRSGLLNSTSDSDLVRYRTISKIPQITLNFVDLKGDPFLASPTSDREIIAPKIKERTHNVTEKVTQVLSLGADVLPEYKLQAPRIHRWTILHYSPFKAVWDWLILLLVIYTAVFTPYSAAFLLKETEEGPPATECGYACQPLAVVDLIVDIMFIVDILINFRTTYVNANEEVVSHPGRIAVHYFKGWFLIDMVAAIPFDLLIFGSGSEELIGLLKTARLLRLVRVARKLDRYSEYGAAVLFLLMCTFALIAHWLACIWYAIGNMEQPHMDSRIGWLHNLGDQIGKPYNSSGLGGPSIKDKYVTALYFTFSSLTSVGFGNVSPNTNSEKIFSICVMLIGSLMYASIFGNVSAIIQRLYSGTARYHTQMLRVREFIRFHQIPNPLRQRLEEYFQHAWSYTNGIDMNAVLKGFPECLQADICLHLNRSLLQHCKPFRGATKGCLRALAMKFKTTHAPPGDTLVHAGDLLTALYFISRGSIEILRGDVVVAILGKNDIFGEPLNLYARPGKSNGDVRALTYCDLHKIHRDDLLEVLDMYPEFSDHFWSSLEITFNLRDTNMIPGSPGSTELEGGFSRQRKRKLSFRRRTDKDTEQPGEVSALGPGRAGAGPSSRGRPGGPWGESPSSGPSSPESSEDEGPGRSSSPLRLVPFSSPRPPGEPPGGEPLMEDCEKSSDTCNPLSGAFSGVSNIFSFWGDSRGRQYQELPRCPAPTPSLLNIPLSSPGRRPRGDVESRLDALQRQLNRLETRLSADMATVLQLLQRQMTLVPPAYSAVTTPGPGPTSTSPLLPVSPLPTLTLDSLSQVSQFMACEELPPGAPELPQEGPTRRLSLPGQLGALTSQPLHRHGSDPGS", "parameters": "method as in literature", "conditions": "in vitro GLP hERG assay, ref literature; cited from earlier work"}, "[7]": {"system": "RET", "conditions": "cited from earlier work"}}, "note": "Read-outs that look alike come from different tables or passages of the source."}
{"smiles": "COc1cc2nccc(Oc3ccc(NC(=O)C4(C(=O)Nc5ccc(F)cc5)CC4)cc3)c2cc1OC", "note": "[cabozantinib]", "values": [{"measurement": "ORR", "setting": "[1]; NCT00704730, MTC ref 89", "result": 28, "unit": "%"}, {"measurement": "mPFS", "setting": "[1]; NCT00704730, MTC, 140 mg/d ref 89", "result": 11.2, "unit": "months"}, {"measurement": "mOS", "setting": "[1]; RET M918T-positive subgroup ref 89", "result": 44.3, "unit": "months"}, {"measurement": "IC50", "setting": "[2]", "result": "1.3 ± 1.2", "unit": "nM"}, {"measurement": "IC50", "setting": "[3]", "result": "0.035 ± 0.01", "unit": "nM"}]}
{"smiles": "COc1cc2nccc(Oc3ccc(NC(=O)NC4CC4)c(Cl)c3)c2cc1C(N)=O", "note": "[lenvatinib]", "values": [{"measurement": "ORR", "setting": "[1]; NCT01877083, RET fusion NSCLC, 24 mg/d ref 93", "result": 16, "unit": "%"}, {"measurement": "DCR", "setting": "[1]; NCT01877083 ref 93", "result": 76, "unit": "%"}, {"measurement": "mPFS", "setting": "[1]; NCT01877083 ref 93", "result": 7.3, "unit": "months"}, {"measurement": "Patients with grade 3 or higher AEs", "setting": "[4]; NCT01877083 ref 93", "result": 92, "unit": "%"}]}
{"smiles": "CNC(=O)c1cc(Oc2ccc(NC(=O)Nc3ccc(Cl)c(C(F)(F)F)c3)cc2)ccn1", "note": "[sorafenib]", "values": [{"measurement": "PR rate", "setting": "[1]; DECISION ref 80", "result": 12.2, "unit": "%"}]}
{"smiles": "CO[C@]1(C(=O)N[C@@H](C)c2ccc(-n3cc(F)cn3)nc2)CC[C@H](c2nc(C)cc(Nc3cc(C)[nH]n3)n2)CC1", "note": "[pralsetinib]", "values": [{"measurement": "Complete response", "setting": "[1]; ARROW, NSCLC ref 101", "result": 14, "unit": "%"}, {"measurement": "Patients with tumor shrinkage", "setting": "[1]; ARROW, NSCLC ref 101", "result": 95, "unit": "%"}, {"measurement": "ORR", "setting": "[1]; ARROW, RET fusion-positive NSCLC ref 101", "result": 61, "unit": "%"}, {"measurement": "ORR", "setting": "[1]; ARROW, RET fusion-positive NSCLC, previously treated ref 29", "result": 59, "unit": "%"}, {"measurement": "ORR", "setting": "[1]; ARROW, RET fusion-positive NSCLC, treatment-naïve ref 29", "result": 72, "unit": "%"}, {"measurement": "ORR", "setting": "[1]; ARROW, RET-mutant MTC previously treated with vandetanib ref 101", "result": 60, "unit": "%"}, {"measurement": "ORR", "setting": "[1]; ARROW, treatment-naïve MTC ref 101", "result": 74, "unit": "%"}, {"measurement": "ORR", "setting": "[1]; ARROW, treatment-naïve RET-mutant MTC ref 31", "result": 71, "unit": "%"}, {"measurement": "Grade ≥ 3 TRAEs", "setting": "[4]; ARROW ref 22,29", "result": 54, "unit": "%"}, {"measurement": "Grade ≥ 3 anemia", "setting": "[4]; ARROW ref 22,29", "result": 12, "unit": "%"}, {"measurement": "Grade ≥ 3 hypertension", "setting": "[4]; ARROW ref 22,29", "result": 12, "unit": "%"}, {"measurement": "Grade ≥ 3 leukopenia", "setting": "[4]; ARROW ref 22,29", "result": 8, "unit": "%"}, {"measurement": "Grade ≥ 3 lymphopenia", "setting": "[4]; ARROW ref 22,29", "result": 9, "unit": "%"}, {"measurement": "Grade ≥ 3 neutropenia", "setting": "[4]; ARROW ref 22,29", "result": 20, "unit": "%"}, {"measurement": "TRSAEs", "setting": "[4]; ARROW ref 22,29", "result": 24, "unit": "%"}, {"measurement": "Treatment-induced deaths", "setting": "[4]", "result": 0.4, "unit": "%"}, {"measurement": "Treatment-induced discontinuations", "setting": "[4]", "result": 7, "unit": "%"}, {"measurement": "Treatment-induced dose reductions", "setting": "[4]", "result": 38, "unit": "%"}]}
{"smiles": "COc1ccc(CN2C3CC2CN(c2ccc(-c4cc(OCC(C)(C)O)cn5ncc(C#N)c45)cn2)C3)cn1", "note": "[selpercatinib]", "values": [{"measurement": "TGI", "setting": "[5]", "result": 45.2, "unit": "%"}, {"measurement": "IC50", "setting": "[6]", "result": 1100, "unit": "nM"}, {"measurement": "ORR", "setting": "[1]; LIBRETTO-001, 19 RET fusion-positive thyroid cancer ref 96-97", "result": 79, "unit": "%"}, {"measurement": "ORR", "setting": "[1]; LIBRETTO-001, 39 NSCLC without systemic therapy ref 96-97", "result": 84, "unit": "%"}, {"measurement": "ORR", "setting": "[1]; LIBRETTO-001, 105 RET fusion-positive NSCLC ref 96-97", "result": 64, "unit": "%"}, {"measurement": "ORR", "setting": "[1]; LIBRETTO-001, NSCLC, previously treated ref 28", "result": 61, "unit": "%"}, {"measurement": "ORR", "setting": "[1]; LIBRETTO-001, RET-mutant thyroid cancer, 55 previously treated ref 96-97", "result": 69, "unit": "%"}, {"measurement": "ORR", "setting": "[1]; LIBRETTO-001, RET-mutant thyroid cancer, 88 not previously treated ref 96-97", "result": 73, "unit": "%"}, {"measurement": "ORR", "setting": "[1]; LIBRETTO-431, NSCLC, treatment-naïve ref 30", "result": 84, "unit": "%"}, {"measurement": "ORR", "setting": "[1]; LIBRETTO-531, RET-mutant MTC ref 32", "result": 69.4, "unit": "%"}, {"measurement": "1-year DoR rate", "setting": "[1]; previously treated ref 28", "result": 73.1, "unit": "%"}, {"measurement": "1-year PFS rate", "setting": "[1]; previously treated ref 28", "result": 70.5, "unit": "%"}, {"measurement": "1-year DoR rate", "setting": "[1]; treatment-naïve ref 28", "result": 66.1, "unit": "%"}, {"measurement": "1-year PFS rate", "setting": "[1]; treatment-naïve ref 28", "result": 70.6, "unit": "%"}, {"measurement": "Grade ≥ 3 TRAEs", "setting": "[4]; LIBRETTO-001 ref 28", "result": 38.6, "unit": "%"}, {"measurement": "Grade ≥ 3 hypertension", "setting": "[4]; LIBRETTO-001 ref 28", "result": 13.2, "unit": "%"}, {"measurement": "Grade ≥ 3 increased ALT", "setting": "[4]; LIBRETTO-001 ref 28", "result": 9.0, "unit": "%"}, {"measurement": "Grade ≥ 3 increased AST", "setting": "[4]; LIBRETTO-001 ref 28", "result": 6.3, "unit": "%"}, {"measurement": "TRSAEs", "setting": "[4]; LIBRETTO-001 ref 28", "result": 11, "unit": "%"}, {"measurement": "Treatment-induced deaths", "setting": "[4]", "result": 0.1, "unit": "%"}, {"measurement": "Treatment-induced discontinuations", "setting": "[4]", "result": 3, "unit": "%"}, {"measurement": "Treatment-induced dose reductions", "setting": "[4]", "result": 41, "unit": "%"}]}
